Experiments:
mTOR = mTOR (Mus musculus, UniProt P26883+Q9JLN9); settings: model not stated; cited from earlier work
Inpp5e^Δ/Δ mice = test: Oral MK2206 treatment of Inpp5e^Δ/Δ mice; assay type: in vivo, mouse
Description: (§1) MK2206 treatment of Inpp5e^Δ/+ and Inpp5e^Δ/Δ mice commenced at P9 and were performed daily up to P14 before sacrifice at P15.MK2206 treatment of Pkd1 litters commenced at P4 and were performed daily up to P10 before sacrifice at P11. MK2206 was delivered orally by pipette in a solution of 27 mg/ml MK2206.2HCI (S1078, Selleck Chemicals) in 30% Capsitol (Cydex) and 5% glucose (49163-100ML, Sigma-Aldrich). Mice were dosed with a volume to deliver MK2206 up to 75 mg/kg as indicated. Mouse body weights were recorded daily. Solutions were stored at 4 degrees for up to 2 weeks. Mice were culled via cervical dislocation or decapitation, as most appropriate for their age following ethical guidelines. Procedures were all conducted by ethically approved and trained personnel. Mice were measured for body weight, with ear tissue, urine and kidneys collected. Ear tissue and urine was stored at -20 degrees. Newborn and P4 kidneys were fixed whole in 4% PFA for 16 hrs at 4 degrees, while the kidney capsule membrane was removed from older mouse kidneys, with the kidney cut into halves and fixed in 10% NBF for 16 hrs at room temperature. Half the kidney samples were sent for histological processing and the other half were snap frozen and stored at -80 degrees until processed for RNA, alpha analysis and/or western blotting. Kidney tissues were paraffin imbedded and sectioned at 4 μm for most analysis with the exception of being sectioned at 10 μm for cilia analysis. Antigen retrieval was performed in Citrate buffer pH6 using Tefal pressure cooker or using a DAKO […] system as indicated. Antibody staining was performed as described elsewhere (Cottle et al., (2013) Cell reports, 3: 427-441), except triton x-100 was included in blocking buffers, and cover slips mounted using Prolong Gold (Invitrogen). Antibodies and stains are listed below. Imaging was using an Aperio brightfield and fluorescent scanners (MHP), Olympus Fluoview 500 (Biochemistry Imaging Suite), Nikon C2 or Leica SP8 confocal microscope (MMI). All quantifications with the exception of Nanostring analysis and Chi squared tests for analysis of mendelian ratios, were analyzed using the unpaired Student's t-test assuming unequal variance in Microsoft Excel and P≤0.05 values were considered significant. One or two tailed tests were selected as appropriate for hypothesis. Values presented are Mean±Standard Error of the Mean (S.E.M). 2K/BW % was calculated as the combined kidney weight over total body weight percentage. Albumin Creatinine Ratios (ACR) were calculated as μg Albumin over mg of Creatinine. Cyst identity was measured as a proportion of cyst epithelial area for each marker out of total sum of cyst epithelial areas of all markers (adjusted for marker co-localisation). Cystic index % is calculated as the proportion of cystic space occupied out of total kidney area in DBA-stained kidney longitudinal cross-sections. Cyst number reflects the average number of cysts counted per DBA-stained longitudinal kidney cross section. Cyst size is the average cross-sectional cyst size (mm^2) of cysts sampled from DBA-stained kidney longitudinal cross sections. Due to escape of Cre activity at the Aurka locus in cysts, unless otherwise indicated references to Inpp5e^Δ/Δ; Aurka^Δ/Δ immunostains and their quantifications reflect non-cystic regions throughout this study.

Pkd1^Δ/Δ mice = test: Oral MK2206 treatment of Pkd1^Δ/Δ mice (ADPKD model); assay type: in vivo, mouse
Description: as §1

[1] = oral, daily from P9, sacrificed at P15, vs vehicle
[2] = daily P4 to P10, P11, dose dependent, up to 75 mg/kg

| Structure (SMILES) | cyst number (mTOR) | cyst size (mTOR) | % AKT pS473 high collecting duct cells (Inpp5e^Δ/Δ mice; cystic Inpp5e^Δ/Δ and control mice, Vehicle or MK2206) | acquisition of cysts (average cyst number per section) (Inpp5e^Δ/Δ mice; [1]) | ciliation (Inpp5e^Δ/Δ mice; [1]) | cyst size (Inpp5e^Δ/Δ mice; [1]) | cystic index (Inpp5e^Δ/Δ mice; [1]) | kidney size (2K/BW %) (Inpp5e^Δ/Δ mice; [1]) | proportion of AURKA high cells (Inpp5e^Δ/Δ mice; [1]) | proportion of collecting duct cells with phosphorylated AKT (AKT pT308 high) (Inpp5e^Δ/Δ mice; [1]) | cyst number (Pkd1^Δ/Δ mice; [2]) | cyst size (Pkd1^Δ/Δ mice; [2]) | cystic index (Pkd1^Δ/Δ mice; [2]) | kidney to body weight ratio (Pkd1^Δ/Δ mice; [2]) | severity of PKD (Pkd1^Δ/Δ mice; daily P4 to P10, sacrifice at P11, up to 75 mg/kg) |
| --- | --- | --- | --- | --- | --- | --- | --- | --- | --- | --- | --- | --- | --- | --- | --- |
| CO[C@H]1C[C@@H]2CC[C@@H](C)[C@@](O)(O2)C(=O)C(=O)N2CCCC[C@H]2C(=O)O[C@H]([C@H](C)C[C@@H]2CC[C@@H](OCCO)[C@H](OC)C2)CC(=O)[C@H](C)/C=C(\C)[C@@H](O)[C@@H](OC)C(=O)[C@H](C)C[C@H](C)/C=C/C=C/C=C/1C [Everolimus] | not number | reduction in cyst size |  |  |  |  |  |  |  |  |  |  |  |  |  |
| NC1(c2ccc(-c3nc4ccn5c(=O)[nH]nc5c4cc3-c3ccccc3)cc2)CCC1 [MK2206] |  |  | reduces AKT pS473 detection | slowed the acquisition of cysts | increased ciliation | reduced cyst size | reduced the cystic index | significantly smaller than vehicle treated controls | also reduced | reduction in the proportion of collecting duct cells with phosphorylated AKT | reducing | reducing | reducing | reducing | reduce the severity of PKD in a dose dependent manner |

Reference: patent US20220372491A1, “TREATMENT OF RENAL CYSTIC DISEASE” (MONASH UNIVERSITY, priority 2019, published 2022)
